Legend:
BT474 cells = assay: Drug screening, BT474 (RealTime-Glo MT); format: cell-based, human
Method: (§1) The following example describes experiments conducted to calculate IC50 values using a non-linear fit in Graphpad Prism by GraphPad Software Inc.
(§2) Cells grown in 2D were dosed starting after 24 h with either EHT-1864, AZD6482, Maritoclax, ZSTK474, Afatinib, TW-37, ABT-199, ABT-263 and Temsirolimus between 50 nM and up to 20 μM using an Hewlett-Packard (HP) D300 digital dispenser containing up to 0.2% DMSO then treated again 48 h following the first dose and ended after 72 h of treatment. Cells grown in 3D were dosed after 14 days with up to 0.2% DMSO every 48 h for 7 days. Cell viability was assessed by removing media and replacing it with 100 μL of sterile RealTime-Glo MT (Promega) which was diluted 1000× in media warmed to 37° C. After 1 h luminescence was detected using a Tecan microplate reader (Life Sciences) with 1 second integration time. Cell viability was calculated by subtracting background luminescence from all groups; treatment was compared to control wells, which received up to 0.2% DMSO. Data represents 3 independent replicates consisting of different cell passages for each condition to calculate the mean and standard deviation of cell viability.

MDA-MB-468 cells [1] = assay: Drug screening, MDA-MB-468 (PrestoBlue); format: cell-based; conditions: Homo sapiens, treated 7 days
Method: as §1
Cells were dosed with 0.1, 1, 5, 20 and 50 μM Erlotinib-HCl containing 0.27% DMSO every 48 h for 7 days. Cell viability was assessed by removing media and replacing it with 150 μL of sterile, PrestoBlue which was diluted 10× in media warmed to 37° C. After 2.5 hours fluorescence was detected using a Tecan microplate reader (Life Sciences) by exciting at 570 nm and detected at 590 nm. Cell viability was calculated by subtracting background fluorescence from all groups; treatment was compared to control wells, which received 0.27% DMSO. Data represents 3 independent replicates consisting of different cell passages for each condition to calculate the mean and standard deviation of cell viability.

[2] = system: tumor derived mammary luminal epithelial cells; assay: Drug screening with primary cells; format: cell-based; conditions: human patient tumour luminal B breast cancer cells
Method: as §2, with “dosed” for “dosed starting”, “Maritoclax” for “either EHT-1864, AZD6482, Maritoclax, ZSTK474, Afatinib, TW-37, ABT-199, ABT-263 and Temsirolimus”, “10” for “50”, “DMSO. IC50 values were calculated using a non-linear fit in Graphpad Prism by GraphPad Software Inc.” for “DMSO.”

MDA-MB-468 cells [3] = assay: RGDOA cell adhesion assay; format: cell-based, human; conditions: RGDOA 250-1000 μM conjugated to HA-oxime hydrogels for 1 hour
Method: RGDOA Cell Adhesion assay: […] After gelling for 2 h at 37° C., 25 μL of 125, 250, 500, and 1000 μM RGDOA solutions in media described above were added to hydrogels. After treatment with RGDOA solutions for 1 h at 37° C., the media was removed and gels were washed three times with media at 25 μL per well. MDA-MB-468 cells were seeded on the surface of the hydrogels at a density of 3000 cells well^−1 in 25 μL of media and incubated for 30 min. Media was gently removed by pipette and replaced with PBS cooled to 4° C. […] Cells nuclei were stained with Hoechst 33342, 1/250 in PBS, 25 μL well^−1 for 4 h. Images were obtained using an Olympus confocal microscope at 10× magnification with z-stacks of 12 μm step size. Cell number was quantified using spot identification in Imaris 8 software by Bitplane. The fold change in cell number was calculated from control hydrogels containing no RGDOA peptide. A minimum of 3 independent replicates consisting of different cell passages were performed for each condition.

Compound: Cc1cc([C@@H](C)Nc2ccccc2C(=O)O)c2nc(N3CCOCC3)cc(=O)n2c1 [AZD6482]
- responsiveness in HA-oxime versus Matrigel or 2D TCPS (BT474 cells; BT474 cells): more responsive

Compound: O=c1cc(CN2CCOCC2)occ1OCCCCCSc1ccnc2cc(C(F)(F)F)ccc12 [EHT-1864]
- responsiveness in HA-oxime versus Matrigel (BT474 cells; BT474 cells): more responsive

Compound: FC(F)c1nc2ccccc2n1-c1nc(N2CCOCC2)nc(N2CCOCC2)n1 [ZSTK474]
- cell response between HA-oxime, Matrigel and 2D TCPS (BT474 cells; BT474 cells): cell response did not always differ between the 3 culture conditions

Compound: C#Cc1cccc(Nc2ncnc3cc(OCCOC)c(OCCOC)cc23)c1 [erlotinib]
- IC50 (MDA-MB-468 cells [1]; MDA-MB-468, MDA-MB-468 cultured in 3D (Matrigel, HA-oxime+/−Ln) 21 days): ~4.5 µM
- IC50 (MDA-MB-468 cells [1]; MDA-MB-468, MDA-MB-468 grown on 2D TCPS 21 days): 37.6 µM

Compound: O=C(c1ccccc1O)c1[nH]c(Cl)c(Cl)c1-n1c(C(=O)c2ccccc2O)cc(Cl)c1Cl [maritoclax]
- sensitivity in HA-oxime versus 2D TCPS (BT474 cells; BT474 cells): over tenfold more sensitive
- IC50 (BT474 cells; BT474 cells cultured in 2D TCPS): 5.5 µM
- IC50 (BT474 cells; BT474 cells cultured in HA-oxime): 0.59 µM
- sensitivity in 3D HA-oxime versus 2D TCPS [2]: significantly more sensitive

Compound: Acetyl-GRGDSPASSKK(OA)G [RGDOA]
- number of adherent MDA-MB-468 cells (MDA-MB-468 cells [3]): increase in the number of adherent cells
